Results as given in patent US20060052435A1, “Selective dopamin d3 receptor agonists for the treatment of sexual dysfunction” (priority 2001, published 2006).
Read-outs that look alike come from different tables or passages of the source.

Legend:
anaesthetised dog [1] = assay: haemodynamics in the anaesthetised dog; assay type: in vivo
Source text: Male beagles were anaesthetised with a mixture of chloralose and urethane, following pre-medication with piritramide. They were instrumented to measure arterial blood pressure, cardiac output, E.C.G., pudendal artery blood flow (PAF) and intra-cavernosal pressure (ICP). Other parameters such as heart rate and vascular resistance were derived from the primary signals. Following a period of equilibration, a series of control readings were taken and the effects of pelvic nerve stimulation at 4 and 8 Hz, on ICP and PAF were measured. Compounds were administered subcutaneously in the dorsal neck region via an implanted catheter, in the dose range of 0.3-3000 μg(base)/kg. Following each dose, parameters were measured at fixed intervals for 30 min.
Results were analysed as percent change from the final control values for each dog and mean values for three dogs were used.

anaesthetised dog [2] = assay: emesis in the chloralose anaesthetised dog; details: male, beagle, dog, in vivo, sc, 30 min
Experimental: Male beagles, 11-17 kg were used. Following an overnight fast, animals were anaesthetised with chloralose (80 mg kg^−1 i.v.), having first been injected with an anaesthetic dose of the short acting barbiturate, thiopentone (15 mg kg^−1 i.v.). Following tracheal intubation, which ensured a patent airway even during the expulsion phase of the emetic response, the left femoral vein and artery were cannulated for further administration of anaesthetic and for recording haemodynamic parameters, respectively. […] During the stabilisation period, respiratory rate was monitored to ensure that central respiratory centres were not deeply depressed, since the CNS efferent component of the emetic reflex is essentially conveyed via respiratory motor neurones. […] Animals were observed closely for 30 min post-dose and motor (e.g. swallowing, eye blinking, limb movements, changes in respiratory rate and depth, retching and vomiting) and haemodynamic changes noted and recorded. […] At the end of an experiment animals were sacrificed with an overdose of pentobarbitone.
Observations made on individual animals were used to determine the percentage of animals that retched when injected with a particular dose level of test compound. Percentage of animals retching was then used to construct a dose response curve and an ED50 value determined from the appropriate curve.

[3] = biological target: human dopamine D2 long receptor (Homo sapiens, UniProt P14416)
telemetry rats = assay: rat telemetry model of erection (intracavernosal pressure); assay type: in vivo; details: for proerectile effect (words): male models of erection / telemetry rats, agonist alone; for agonist-induced erectile activity with concomitant L-741,626 and SB-277,011: L-741,626 2 mg/kg s.c. and SB-277,011 3 mg/kg s.c.
Experimental: Erectile responses were recorded by measuring intracavernosal pressure and/or clitoral/vaginal blood flow using surgically implanted telemetric device. The specific details of the surgical procedures, data acquisition and analysis can be found in detail in Bernabe J, Rampin O, Sachs B D, Giuliano F. Intracavernous pressure during erection in rats: an integrative approach based on telemetric recording. Am. J. Physiol.

ferrets = assay: 7-OH-DPAT-induced emesis in the ferret; assay type: in vivo; details: for Antagonist potency ED100 versus 7-OH-DPAT-induced emesis: s.c., minimum dose completely inhibiting emesis in all animals, n = 3
D3 = D3 (Homo sapiens, UniProt P35462); details: WO 93/23035; cited from earlier work
D2 [4] = biological target: T1, D2 (Homo sapiens, UniProt P14416); details: WO 93/23035; cited from earlier work
[5] = biological target: D3 receptors over D2 receptors (Homo sapiens, UniProt P35462); details: GTPγS assay; cited from earlier work
New Zealand rabbits = assay: male and female anaesthetised rabbit, pelvic nerve stimulation; assay type: in vivo
Experimental: 1.1.1 Male and Female Anaesthetised Rabbit Methodology
Male and female New Zealand rabbits (˜2.5 kg) were pre-medicated with a combination of Medetomidine (Domitor®) 0.5 ml/kg i.m., and Ketamine (Vetalar®) 0.25 ml/kg i.m. whilst maintaining oxygen intake via a face mask. The rabbits were tracheotomised using a Portex™ uncuffed endotracheal tube 3 ID., connected to ventilator and maintained at a ventilation rate of 30-40 breaths per minute, with an approximate tidal volume of 18-20 ml, and a maximum airway pressure of 10 cm H2O. Anaesthesia was then switched to Isoflurane and ventilation continued with O2 at 2 l/min. The right marginal ear vein was cannulated using a 23 G or 24 G catheter, and Lactated Ringer solution perfused at 0.5 ml/min. The rabbit was maintained at 3% Isoflurane during invasive surgery, dropping to 2% for maintenance anaesthesia. The left jugular vein was exposed, isolated and then cannulated with a PVC catheter (17 G) for the infusion of drugs and compounds.
The left groin area of the rabbit was shaved and a vertical incision was made approximately 5 cm in length along the thigh. The femoral vein and artery were exposed, isolated and then cannulated with a PVC catheter (17 G) for the infusion of drugs and compounds. Cannulation was repeated for the femoral artery, inserting the catheter to a depth of 10 cm to ensure that the catheter reached the abdominal aorta. This arterial catheter was linked to a Gould system to record blood pressure. Samples for blood gas analysis were also taken via the arterial catheter. Systolic and diastolic pressures were measured, and the mean arterial pressure calculated using the formula (diastolic×2+systolic)÷3. Heart rate was measured via the pulse oxymeter and Po-ne-mah data acquisition software system (Ponemah Physiology Platform, Gould Instrument Systems, Inc.).
A ventral midline incision was made into the abdominal cavity. The incision was about 5 cm in length just above the pubis. The fat and muscle was bluntly dissected away to reveal the hypogastric nerve which runs down the body cavity. It was essential to keep close to the side curve of the pubis wall in order to avoid damaging the femoral vein and artery which lie above the pubis. The sciatic and pelvic nerves lie deeper and were located after further dissection on the dorsal side of the rabbit. Once the sciatic nerve is identified, the pelvic nerve was easily located. The term pelvic nerve is loosely applied; anatomy books on the subject fail to identify the nerves in sufficient detail. However, stimulation of the nerve causes an increase in vaginal and clitoral blood flow in females and in intracavernosal pressure and cavernosal blood flow in males, and innervation of the pelvic region. […]

dopamine D3 receptor = dopamine D3 receptor (Homo sapiens, UniProt P35462); assay: cell-based
[6] = unbound plasma and whole brain concentrations in anaesthetised ferrets; details: s.c. dosing at the ED100 dose, n = 1
[7] = biological target: human recombinant D2short (hD2s) receptors (Homo sapiens, UniProt P14416); assay: inhibition of binding of [3H]-spiperone; details: n = 3-11
D2 [8] = biological target: T1, D2; details: quoted abstract; cited from earlier work
[9] = tested on: ovariectomized, partially hormone-repleted female rats; details: 50 ug/kg P.O., 15-30 min after dosing; from 22+/−8%; cited from earlier work
D1 receptor = D1 receptor (Homo sapiens, UniProt P21728); details: quoted abstract; cited from earlier work
male rhesus monkeys = details: 20 and 50 ug/kg P.O., evaluated for 4 hr; cited from earlier work
[10] = ferret, in vivo, sc
[11] = biological target: human recombinant D3 (hD3) receptors (Homo sapiens, UniProt P35462, G9S); assay: inhibition of binding of [3H]-R(+)-7-OH-DPAT; details: n = 3-11
human recombinant D3 (hD3) receptors, sequence (P35462 whole entry G9S): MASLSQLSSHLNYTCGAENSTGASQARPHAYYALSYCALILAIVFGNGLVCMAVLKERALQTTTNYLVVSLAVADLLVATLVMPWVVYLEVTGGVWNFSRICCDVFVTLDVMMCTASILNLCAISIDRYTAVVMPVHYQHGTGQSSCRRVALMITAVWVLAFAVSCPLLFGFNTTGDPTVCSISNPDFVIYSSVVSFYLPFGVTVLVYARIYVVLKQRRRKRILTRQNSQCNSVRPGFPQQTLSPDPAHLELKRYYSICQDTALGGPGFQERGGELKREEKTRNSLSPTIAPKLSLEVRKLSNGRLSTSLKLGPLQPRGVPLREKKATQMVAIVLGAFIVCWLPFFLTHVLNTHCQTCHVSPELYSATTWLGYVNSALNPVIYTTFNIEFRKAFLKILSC

human dopamine D2 long receptor, sequence (P14416 whole entry): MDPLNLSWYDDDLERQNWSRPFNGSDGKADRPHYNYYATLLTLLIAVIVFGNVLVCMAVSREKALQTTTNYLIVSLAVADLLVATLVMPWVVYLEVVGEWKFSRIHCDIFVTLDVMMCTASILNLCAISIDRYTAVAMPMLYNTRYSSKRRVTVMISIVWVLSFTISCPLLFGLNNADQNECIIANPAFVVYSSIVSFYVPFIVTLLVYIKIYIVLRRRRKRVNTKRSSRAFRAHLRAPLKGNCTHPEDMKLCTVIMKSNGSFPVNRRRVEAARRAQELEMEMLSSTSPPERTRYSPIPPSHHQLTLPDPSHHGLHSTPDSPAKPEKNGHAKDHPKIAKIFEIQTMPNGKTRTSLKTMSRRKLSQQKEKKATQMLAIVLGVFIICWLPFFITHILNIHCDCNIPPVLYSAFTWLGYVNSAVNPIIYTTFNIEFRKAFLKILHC
T1 sequence (P14416 whole entry): as above
human recombinant D2short (hD2s) receptors, sequence (P14416 1-414 isoform P14416-2): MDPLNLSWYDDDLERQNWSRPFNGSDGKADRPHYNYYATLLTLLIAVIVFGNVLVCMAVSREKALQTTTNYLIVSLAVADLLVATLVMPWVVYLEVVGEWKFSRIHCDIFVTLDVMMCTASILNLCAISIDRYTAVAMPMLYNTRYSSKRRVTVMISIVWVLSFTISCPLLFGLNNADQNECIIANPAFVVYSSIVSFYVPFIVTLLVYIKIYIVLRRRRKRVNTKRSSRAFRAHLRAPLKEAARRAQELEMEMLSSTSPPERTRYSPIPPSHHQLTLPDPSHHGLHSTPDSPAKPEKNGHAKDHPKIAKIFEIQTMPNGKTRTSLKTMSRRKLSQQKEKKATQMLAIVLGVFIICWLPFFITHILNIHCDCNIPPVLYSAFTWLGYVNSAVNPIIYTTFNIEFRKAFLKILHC
D1 receptor, sequence (P21728 whole entry): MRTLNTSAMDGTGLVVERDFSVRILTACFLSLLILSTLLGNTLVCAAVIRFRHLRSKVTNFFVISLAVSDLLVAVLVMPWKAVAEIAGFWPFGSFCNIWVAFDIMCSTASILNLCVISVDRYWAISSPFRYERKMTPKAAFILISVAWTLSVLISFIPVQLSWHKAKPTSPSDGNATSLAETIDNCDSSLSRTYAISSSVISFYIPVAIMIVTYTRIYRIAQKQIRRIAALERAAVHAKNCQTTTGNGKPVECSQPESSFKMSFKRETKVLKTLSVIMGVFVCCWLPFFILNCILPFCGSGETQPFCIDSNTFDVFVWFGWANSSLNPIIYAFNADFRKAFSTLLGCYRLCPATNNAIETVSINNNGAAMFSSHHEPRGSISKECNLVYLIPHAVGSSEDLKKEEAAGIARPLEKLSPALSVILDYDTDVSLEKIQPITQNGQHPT
D3 receptors over D2 receptors, sequence (P35462 whole entry, species assumed): as the sequence (P35462 whole entry G9S) above, with S9G counted along it
dopamine D3 receptor, sequence (P35462 whole entry, species assumed): as the sequence (P35462 whole entry G9S) above, with S9G counted along it
D3, sequence (P35462 whole entry, species assumed): as the sequence (P35462 whole entry G9S) above, with S9G counted along it

c1ccc(N2CCN(C[C@H]3CC[C@H](Nc4ncccn4)CC3)CC2)cc1 [trans-[4-[(4-Phenylpiperazin-1-yl)methyl]cyclohexyl]-pyrimidin-2-ylamine]
Geometric mean ED30 (fall in TPR) (anaesthetised dog [1]; dog, in vivo): 44.6 μg/kg s.c.
cardiac output at the highest dose levels (anaesthetised dog [1]; dog, in vivo): approximately doubled
effect on cardiac output and heart rate (anaesthetised dog [1]; dog, in vivo, sc): increases in cardiac output and heart rate
dose at which emesis was observed (anaesthetised dog [2]): 0.1 mg/kg
EC50 [3]: 3.8 nM
erectogenic effect in the presence of selective D2 receptor antagonist L-741,626 (telemetry rats; L-741,626 2 mg/kg s.c.): abolished
proerectile effect (words) (telemetry rats): produced erections

CCCN1CCOC(c2cc(O)cc(O)c2)C1 (single isomer, unassigned) [Example 15a, R-5-(4-Propylmorpholin-2-yl)benzene-1,3-diol]
EC50 [3]: 1750 nM

CCCN(CCC)C1CCc2ccc(O)cc2C1 (stereo not shown) [Example 7-OH-DPAT]
emetic response, total retches and vomits (mean±s.e.m.) (ferrets; 0.1 mg/kg s.c., observed for 6 h, control animals): 78.0±9.0
agonist-induced erectile activity with concomitant L-741,626 and SB-277,011 (telemetry rats): abolishes all 7-OH-DPAT-induced erectile activity
proerectile effect (words) (telemetry rats): induce/enhance proerectile effects

CCCN1CCOC(c2cc(O)cc(O)c2)C1 (racemic) [Example 15a + 15b (racemate)]
EC50 [3]: > 10000 nM

CCCN(CCC)CCc1cccc2c1CC(=O)N2 [Ropinirole]
binding D3 (D3): 69 nM
binding D2 (D2 [4]): 1380 nM
EC50 [3]: 16.1 nM

CCCN1CCO[C@H]2c3cc(C(N)=O)ccc3CC[C@@H]21 [Example S32504]
selectivity for D3 receptors over D2 receptors [5]: 251 fold
penile intracavernosal pressure and cavernosal blood flow in male rabbits (New Zealand rabbits): beneficially enhances
vaginal and clitoral blood flow in female rabbits (New Zealand rabbits): beneficially enhances

CCCN1CCOC(c2ccc(O)c(N)c2)C1 (stereo not shown) [Example 37, 2-Amino-4-(4-propylmorpholin-2-yl)phenol]
EC50 [3]: > 100000 nM

CCCNC1CCc2nc(N)sc2C1.Cl.Cl (stereo not shown) [Pramipexole, 2-amino-4,5,6,7-tetrahydro-6-propylamino-benzthiazole-dihydrochloride]
EC50 (dopamine D3 receptor): 0.62 nM
agonist-induced erectile activity with concomitant L-741,626 and SB-277,011 (telemetry rats): abolishes all pramipexole-induced erectile activity
No of erectogenic events/15 min (telemetry rats; Pramipexole 0.1 μg/kg s.c.): 2.8 ± 0.2 n = 5 erectogenic events/15 min
proerectile effect (words) (telemetry rats): induces a proerectile effect
proerectile effect (words) (telemetry rats; listed as pramipexole): induce/enhance proerectile effects

CN1CCc2cccc3c2[C@H]1Cc1ccc(O)c(O)c1-3 [Apomorphine]
Geometric mean ED30 (fall in TPR) (anaesthetised dog [1]; dog, in vivo): 11.7 μg/kg s.c.
cardiac output at the highest dose levels (anaesthetised dog [1]; dog, in vivo): approximately doubled
effect on cardiac output and heart rate (anaesthetised dog [1]; s.c.): increases in cardiac output and heart rate
effect on total vascular resistance (TVR; TPR) (anaesthetised dog [1]; s.c., doses up to 3000 μg/kg): reduction in total vascular resistance
proerectile effect (words) (telemetry rats): induce/enhance proerectile effects

CCCN(CCC)[C@@H]1CCc2cc(CS(=O)(=O)c3ccc(OC)cc3)ccc2C1 [GR218231]
Brain conc^n [6]: 1670 ng/g
Plu/Ki hD2s (ratio of unbound plasma concentration to binding affinity) [6]: 1.3
Plu/Ki hD3 (ratio of unbound plasma concentration to binding affinity) [6]: 95
animals in which emesis was blocked (ferrets; highest dose of 10 mg/kg): ⅔
Antagonist potency ED100 versus 7-OH-DPAT-induced emesis (ferrets): >10 mg/kg
Affinity estimates (pKi ± s.e.m.) hD2s [7]: 6.8 ± 0.44

CN[C@@H]1Cc2cccc3[nH]c(=S)n(c23)C1 [PNU-142774E]
Ki (D2 [8]): 7 nM
lordosis/mounts ratio (L/M) [9]: 65+/−10%
Ki (D1 receptor): > 7000 nM
non-contact sexual behavior (erections, masturbation) (male rhesus monkeys): increase in sexual behavior

CCCN1CCC[C@@H]2Cc3nc(N)ncc3C[C@H]21 [Quinelorane]
EC50 [3]: 6.1 nM

CCc1cc(Cl)c(OC)c(C(=O)NC[C@@H]2CCCN2CC)c1O [(S)-eticlopride]
Antagonist potency ED100 versus 7-OH-DPAT-induced emesis (ferrets): 0.03 mg/kg
Ki ([7]; read-out: Affinity estimates (pKi ± s.e.m.) hD2s (converted)): 0.501 nM
Brain conc^n [10]: 377 ng/g

CCCN1CCOC(c2ccc(F)c(O)c2)C1 (single isomer, unassigned) [Example 23a, R-(+)-2-Fluoro-5-(4-propylmorpholin-2-yl)phenol]
EC50 [3]: > 5000 nM

OC1(c2ccc(Cl)cc2)CCN(Cc2c[nH]c3ccccc23)CC1 [L-741,626]
Brain conc^n [6]: 250 ng/g
Antagonist potency ED100 versus 7-OH-DPAT-induced emesis (ferrets): 3 mg/kg
Affinity estimates (pKi ± s.e.m.) hD3 [11]: 6.6 ± 0.24

CCCN1CCOC(c2ccc(O)c(C(N)=O)c2)C1 (stereo not shown) [Example 35, 2-Hydroxy-5-(4-propylmorpholin-2-yl)benzamide]
EC50 [3]: ~10500 nM

CCCN1CCOC(c2ccc(F)c(O)c2)C1 (racemic) [Example 23a + 23b (racemate)]
EC50 [3]: > 5000 nM
